PubChem BioAssay (NCI)
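Five compound concentrations were applied to cells in 96-well plates for 48 hours; endpoints were derived by simple linear interpolation of the resulting dose-response curve. GI50 = concentration required for 50% inhibition of growth. TGI: concentration producing complete growth inhibition.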

Experiments:
Test in all cases: NCI anticancer screen, dose series, 48 h
K-562 leukemia = system: K-562 leukemia
TK-10 renal = system: TK-10 renal
COLO 205 colon = system: COLO 205 colon
HOP-62 NSCLC = system: HOP-62 NSCLC
KM12 colon = system: KM12 colon
HT29 colon = system: HT29 colon
SK-MEL-28 melanoma = system: SK-MEL-28 melanoma
ACHN renal = system: ACHN renal
OVCAR-3 ovarian = system: OVCAR-3 ovarian
UACC-257 melanoma = system: UACC-257 melanoma
SN12C renal = system: SN12C renal
NCI-H23 lung = system: NCI-H23 lung
SK-MEL-2 melanoma = system: SK-MEL-2 melanoma
SF-539 CNS = system: SF-539 CNS
SF-268 CNS = system: SF-268 CNS
UACC-62 melanoma = system: UACC-62 melanoma
SF-295 CNS = system: SF-295 CNS
OVCAR-5 ovarian = system: OVCAR-5 ovarian
MOLT-4 leukemia = system: MOLT-4 leukemia
EKVX NSCLC = system: EKVX NSCLC
786-0 renal = system: 786-0 renal
LOX IMVI melanoma = system: LOX IMVI melanoma
SNB-19 CNS = system: SNB-19 CNS
HS 578T breast = system: HS 578T breast
DU-145 prostate = system: DU-145 prostate
NCI-H522 lung = system: NCI-H522 lung
A549 NSCLC = system: A549 NSCLC
IGROV1 ovarian = system: IGROV1 ovarian
U251 CNS = system: U251 CNS
CCRF-CEM leukemia = system: CCRF-CEM leukemia
NCI-H460 lung = system: NCI-H460 lung
HOP-92 NSCLC = system: HOP-92 NSCLC
SK-MEL-5 melanoma = system: SK-MEL-5 melanoma
HCT-116 colon = system: HCT-116 colon
OVCAR-8 ovarian = system: OVCAR-8 ovarian
RPMI-8226 leukemia = system: RPMI-8226 leukemia
SW-620 colon = system: SW-620 colon
MCF7 breast = system: MCF7 breast
RXF 393 renal = system: RXF 393 renal
SNB-75 CNS = system: SNB-75 CNS
NCI-H226 lung = system: NCI-H226 lung
UO-31 renal = system: UO-31 renal
A498 renal = system: A498 renal
SK-OV-3 ovarian = system: SK-OV-3 ovarian
PC-3 prostate = system: PC-3 prostate
BT-549 breast = system: BT-549 breast
MDA-MB-231 breast = system: MDA-MB-231 breast
HCT-15 colon = system: HCT-15 colon
M14 melanoma = system: M14 melanoma
CAKI-1 renal = system: CAKI-1 renal
HCC-2998 colon = system: HCC-2998 colon
MALME-3M melanoma = system: MALME-3M melanoma
NCI/ADR-RES ovarian = system: NCI/ADR-RES ovarian
T-47D breast = system: T-47D breast
HL-60(TB) leukemia = system: HL-60(TB) leukemia
MDA-MB-435 = system: MDA-MB-435

CCCc1cc2cc(-n3nc(CC)c4c3CC(C)(C)CC4=O)cc(NC3CCC(O)CC3)c2c(=O)[nH]1 (configuration not stated)
GI50 (K-562 leukemia): 185 nM | TGI (K-562 leukemia): > 100000 nM | GI50 (TK-10 renal): 621 nM | TGI (TK-10 renal): > 100000 nM | GI50 (COLO 205 colon): 464 nM | TGI (COLO 205 colon): > 100000 nM | GI50 (HOP-62 NSCLC): 836 nM | TGI (HOP-62 NSCLC): > 100000 nM | GI50 (KM12 colon): 758 nM | TGI (KM12 colon): > 100000 nM | GI50 (HT29 colon): 100 nM | TGI (HT29 colon): > 100000 nM | GI50 (SK-MEL-28 melanoma): 869 nM | TGI (SK-MEL-28 melanoma): > 100000 nM | GI50 (ACHN renal): 495 nM | TGI (ACHN renal): > 100000 nM | GI50 (OVCAR-3 ovarian): 4430 nM | TGI (OVCAR-3 ovarian): > 100000 nM | GI50 (UACC-257 melanoma): 3000 nM | TGI (UACC-257 melanoma): > 100000 nM | GI50 (SN12C renal): 365 nM | TGI (SN12C renal): > 100000 nM | GI50 (NCI-H23 lung): 127 nM | TGI (NCI-H23 lung): 50800 nM | GI50 (SK-MEL-2 melanoma): 2270 nM | TGI (SK-MEL-2 melanoma): > 100000 nM | GI50 (SF-539 CNS): 1720 nM | TGI (SF-539 CNS): 89300 nM | GI50 (SF-268 CNS): 7290 nM | TGI (SF-268 CNS): > 100000 nM | GI50 (UACC-62 melanoma): 487 nM | TGI (UACC-62 melanoma): > 100000 nM | GI50 (SF-295 CNS): 759 nM | TGI (SF-295 CNS): > 100000 nM | GI50 (OVCAR-5 ovarian): 3510 nM | TGI (OVCAR-5 ovarian): > 100000 nM | GI50 (MOLT-4 leukemia): 503 nM | TGI (MOLT-4 leukemia): > 100000 nM | GI50 (EKVX NSCLC): > 100000 nM | TGI (EKVX NSCLC): > 100000 nM | GI50 (786-0 renal): 2950 nM | TGI (786-0 renal): > 100000 nM | GI50 (LOX IMVI melanoma): 198 nM | TGI (LOX IMVI melanoma): > 100000 nM | GI50 (SNB-19 CNS): 3020 nM | TGI (SNB-19 CNS): > 100000 nM | GI50 (HS 578T breast): 3490 nM | TGI (HS 578T breast): > 100000 nM | GI50 (DU-145 prostate): 530 nM | TGI (DU-145 prostate): > 100000 nM | GI50 (NCI-H522 lung): 1010 nM | TGI (NCI-H522 lung): 11500 nM | GI50 (A549 NSCLC): 1460 nM | TGI (A549 NSCLC): > 100000 nM | GI50 (IGROV1 ovarian): 831 nM | TGI (IGROV1 ovarian): > 100000 nM | GI50 (U251 CNS): 3370 nM | TGI (U251 CNS): > 100000 nM | GI50 (CCRF-CEM leukemia): 1340 nM | TGI (CCRF-CEM leukemia): > 100000 nM | GI50 (NCI-H460 lung): 482 nM | TGI (NCI-H460 lung): > 100000 nM | GI50 (HOP-92 NSCLC): 1710 nM | TGI (HOP-92 NSCLC): 8600 nM | GI50 (SK-MEL-5 melanoma): 1940 nM | TGI (SK-MEL-5 melanoma): > 100000 nM | GI50 (HCT-116 colon): 193 nM | TGI (HCT-116 colon): > 100000 nM | GI50 (OVCAR-8 ovarian): 2040 nM | TGI (OVCAR-8 ovarian): > 100000 nM | GI50 (RPMI-8226 leukemia): 1580 nM | TGI (RPMI-8226 leukemia): > 100000 nM | GI50 (SW-620 colon): 370 nM | TGI (SW-620 colon): > 100000 nM | GI50 (MCF7 breast): 289 nM | TGI (MCF7 breast): > 100000 nM | GI50 (RXF 393 renal): 408 nM | TGI (RXF 393 renal): 2410 nM | GI50 (SNB-75 CNS): 6220 nM | TGI (SNB-75 CNS): > 100000 nM | GI50 (NCI-H226 lung): 2620 nM | TGI (NCI-H226 lung): > 100000 nM | GI50 (UO-31 renal): 568 nM | TGI (UO-31 renal): > 100000 nM | GI50 (A498 renal): 2020 nM | TGI (A498 renal): > 100000 nM | GI50 (SK-OV-3 ovarian): 409 nM | TGI (SK-OV-3 ovarian): > 100000 nM | GI50 (PC-3 prostate): 1310 nM | TGI (PC-3 prostate): > 100000 nM | GI50 (BT-549 breast): 2300 nM | TGI (BT-549 breast): > 100000 nM | GI50 (MDA-MB-231 breast): 652 nM | TGI (MDA-MB-231 breast): > 100000 nM | GI50 (HCT-15 colon): 400 nM | TGI (HCT-15 colon): > 100000 nM | GI50 (M14 melanoma): 572 nM | TGI (M14 melanoma): > 100000 nM | GI50 (CAKI-1 renal): 1130 nM | TGI (CAKI-1 renal): > 100000 nM | GI50 (HCC-2998 colon): 842 nM | TGI (HCC-2998 colon): > 100000 nM | GI50 (MALME-3M melanoma): 839 nM | TGI (MALME-3M melanoma): > 100000 nM | GI50 (NCI/ADR-RES ovarian): 3880 nM | TGI (NCI/ADR-RES ovarian): > 100000 nM | GI50 (T-47D breast): 2060 nM | TGI (T-47D breast): > 100000 nM | GI50 (HL-60(TB) leukemia): 315 nM | TGI (HL-60(TB) leukemia): > 100000 nM | GI50 (MDA-MB-435): 444 nM | TGI (MDA-MB-435): > 100000 nM
